From publication PMC9377232 (Journal of Enzyme Inhibition and Medicinal Chemistry, 2022)
Marks after values point to notes of the source that are not given here.

Key:
[1] = test system: stomach; assay: Acute ulcerogenic side effect; assay type: in vivo; conditions: mice; for Abou Zeit Har Score (ulcer index): intraperitoneal, indomethacin 5 mg/kg, celecoxib 20 mg/kg, means ± SD; for Gastric mucosa finding (ulcers) on examination: stomach examined after sacrifice
[2] = test system: COX-1 mRNA; assay: Real-time PCR of inflamed paw tissue, COX-1 gene expression; assay type: in vivo, Mouse; conditions: paw tissue after formalin test; 2^-ΔΔCt method; means ± SD
[3] = test system: COX-2 mRNA; assay: Real-time PCR of inflamed paw tissue, COX-2 gene expression; assay type: in vivo, Mouse; conditions: paw tissue after formalin test; 2^-ΔΔCt method; means ± SD
[4] = test system: LOX mRNA; assay: Real-time PCR of inflamed paw tissue, LOX gene expression; assay type: in vivo, Mouse; conditions: paw tissue after formalin test, 2^-ΔΔCt method, means ± SD

| Structure (SMILES) | Abou Zeit Har Score (ulcer index) [1] | Gastric mucosa finding (ulcers) on examination [1] | COX-1 mRNA relative expression (real-time PCR) [2] | COX-2 mRNA relative expression (real-time PCR) [3] | LOX mRNA relative expression (real-time PCR) [4] | LOX mRNA relative expression (real-time PCR) ([4]; listed as indomethacin) |
| --- | --- | --- | --- | --- | --- | --- |
| Cc1ccc(-c2cc(C(F)(F)F)nn2-c2ccc(S(N)(=O)=O)cc2)cc1 [Celecoxib] | 0.6 ± 0.58 | preserved the integrity of the mucosa |  |  |  |  |
| COc1ccc2c(c1)c(CC(=O)O)c(C)n2C(=O)c1ccc(Cl)cc1 [Indomethacin] | 11.2 ± 1.64 | large ulcers | 0.82 ± 0.02 | 0.17 ± 0.01^a | 1.32 ± 0.01 | not affected |
